Source: patent publication US20230416801A1, “ANTIMICROBIC SUSCEPTIBILITY TESTING USING RECURRENT NEURAL NETWORKS” (Beckman Coulter, Inc., priority 2020, published 2023)

What was measured:
Pseudomonas aeruginosa [1] = assay: Target growth or no growth label determined after 16 hours; assay type: cell-based; parameters: key: a value of 1 could be interpreted as a determination that growth would not be inhibited; a value of 0 could be interpreted as a determination that growth would be inhibited; conditions: growth label after 16 hours
Excerpt: As an illustration of how these types of training approaches could be applied in practice, consider tables 5-12, below. In those tables, tables 5-9 provides GRU kernel weights, GRU recurrent weights, GRU bias weights, dense kernel weights, and a dense bias weight for a model implemented using the Keras API (an open source project governed by the Keras Special Interest Group and available at https://keras.io) and Tensorflow backend (an open source machine learning platform developed by Google, Inc. and available at https://www.tensorflow.org/) comprising a network cluster with 24 GRUs trained to make MIC determinations at 4, 5 and 6 hours based on training data for 56 microorganism strains when combined with various antimicrobials and the various combinations were labeled with growth or no growth information determined after 16 hours. In particular, table 5 provides a 1×72 array, in which the first 24 values would be mapped to Wz, the second 24 values would be mapped to Wr and the third 24 values would be mapped to Wh in an embodiment following FIG. 19. Table 6 provides a 72×24 array, in which the first 24×24 array (i.e., the first 24 bracketed sets of values) would be mapped to Uz, the next 24×24 array would be mapped to Ur and the third 24×24 array would be mapped to Uh in an embodiment following FIG. 19. Table 7 provides a 1×72 array, in which the first 24 values would be mapped to bz, the second 24 values would be mapped to br and the third 24 values would be mapped to bh in an embodiment following FIG. 19. Table 8 provides a 1×1344 array of values which would be multiplied by the output of the combination function 1806 in the dense layer 1807. Table 9 provides a bias value which would be added to the output of the dense layer 1807 before it was provided to the activation function 1808. Table 10 provides growth/no growth determinations made at 4, 5 and 6 hours by a system trained as described above for Pseudomonas aeruginosa and the drug Ceftazidime. Tables 11-12 provide microorganisms and antimicrobials included in the training data described above and for which the model was confirmed to be effective.

Pseudomonas aeruginosa [2] = assay: Growth/no growth determinations made at 4, 5 and 6 hours by trained recurrent neural network (24 GRU) model from test-well organism counts; assay type: cell-based; conditions: for 4 Hour Call: model output 0-1 at 4 hours; for 5 Hour Call: model output 0-1 at 5 hours; for 6 Hour Call: model output 0-1 at 6 hours
Excerpt: FIG. 8 provides an illustration of how data that can be used in an optimized AST method 101 can be captured from a test well. Test well 20 is embodied by a “384” style test well, having a clear viewing bottom. The volume of inoculum in test well 20 may be set to 20 microliters to reduce the amount of materials such as bulk diluents required by AST method 101 and/or minimize light artifacts and provide sampling of a consistent number of microbes from the 1:250 dilution of the 0.5 MacFarland inoculum. Decreasing the volume of inoculum in test well 20 generally increases the light artifacts. In some instances, capturing a single vertical plane 103 at 20× objective whereby AST camera 35 is set at 0.33 microns/pixel may be sufficient for sampling the inoculum and ensuring that each individual microbe is recognizable. However, these parameters are configurable and may change as desired by the user or the underlying needs of the system. Capturing three focal sites spaced about 5 microns apart within single vertical plane 103 may also provide a sufficient number of microbes in the sample to count for use in optimized AST method 101. These three focal sites are labeled site 105, site 107, and site 109 in FIG. 8. In an exemplary version of optimized AST method 101, each focal site is approximately 700×700 microns within single vertical plane 103, rather than capturing three sites in three different vertical planes. AST camera 35, optics system 9, and computer 49 are configured to capture an image of each focal site in consecutive time periods, manipulate each of these images, and thereafter use the data derived from these manipulated images to make a MIC determination.
Once data extraction step 117 derives the desired information from segmented image 143, image analysis cycle 102 terminates. Optimized AST method 101 iteratively performs image analysis cycle 102 at set time intervals to determine how the microbes in each test well 20 are changing and reacting to the particular antimicrobic dilution pairing. Further, optimized AST method 101 iteratively performs image analysis cycle 102 on each test well 20 associated with the microbes to determine how the microbes are reacting to each concentration of the antimicrobic dilution. For example, presume the microbes being tested are E. coli bacteria and three test wells 20 are being tested, with each test well 20 having a 20-microliter solution therein. The first test well 20 may contain an antimicrobic dilution of 1 microgram per milliliter (μg/ml), the second test well 20 may contain an antimicrobic dilution of 2 μg/ml, and the third test well 20 may contain an antimicrobic dilution of 4 μg/ml. Optimized AST method 101 performs image analysis cycle 102 on each of the three test wells at each set time interval to determine (a) how each antimicrobic dilution is affecting the microbes; and (b) how each antimicrobic dilution is performing relative to the other antimicrobic dilutions. If the data indicates the 1 μg/ml antimicrobic dilution is as effective as the 2 and 4 μg/ml antimicrobic dilutions at neutralizing the microbes, the 1 μg/ml antimicrobic dilution is the MIC.
In step 163, the MIC is determined. The determination is based on the data collected during each iteration of image analysis cycle 102 for all of the antimicrobic dilutions for a microbial sample as well as for a control well where no antimicrobial agent was present. As described in the following section, this determination may involve processing the collected data with a machine learning model that had previously been trained to make determinations of whether an antimicrobial dilution in a test well would inhibit growth and then determining the MIC based on the test well with the lowest concentration where the machine learning model made a determination that growth would be inhibited. […]

CC(C)(O/N=C(\C(=O)N[C@@H]1C(=O)N2C(C(=O)[O-])=C(C[n+]3ccccc3)CS[C@H]12)c1csc(N)n1)C(=O)O [Ceftazidime]
Target (Pseudomonas aeruginosa [1]; Dilution 0.03): 1 | Target (Pseudomonas aeruginosa [1]; Dilution 0.06): 1 | Target (Pseudomonas aeruginosa [1]; Dilution 0.12): 1 | Target (Pseudomonas aeruginosa [1]; Dilution 0.25): 1 | Target (Pseudomonas aeruginosa [1]; Dilution 0.5): 1 | Target (Pseudomonas aeruginosa [1]; Dilution 1): 1 | Target (Pseudomonas aeruginosa [1]; Dilution 2): 0 | Target (Pseudomonas aeruginosa [1]; Dilution 4): 0 | Target (Pseudomonas aeruginosa [1]; Dilution 8): 0 | Target (Pseudomonas aeruginosa [1]; Dilution 16): 0 | Target (Pseudomonas aeruginosa [1]; Dilution 32): 0 | Target (Pseudomonas aeruginosa [1]; Dilution 64): 0 | 4 Hour Call (Pseudomonas aeruginosa [2]; Dilution 0.03): 1 | 5 Hour Call (Pseudomonas aeruginosa [2]; Dilution 0.03): 1 | 6 Hour Call (Pseudomonas aeruginosa [2]; Dilution 0.03): 1 | 4 Hour Call (Pseudomonas aeruginosa [2]; Dilution 0.06): 1 | 5 Hour Call (Pseudomonas aeruginosa [2]; Dilution 0.06): 1 | 6 Hour Call (Pseudomonas aeruginosa [2]; Dilution 0.06): 1 | 4 Hour Call (Pseudomonas aeruginosa [2]; Dilution 0.12): 1 | 5 Hour Call (Pseudomonas aeruginosa [2]; Dilution 0.12): 1 | 6 Hour Call (Pseudomonas aeruginosa [2]; Dilution 0.12): 1 | 4 Hour Call (Pseudomonas aeruginosa [2]; Dilution 0.25): 1 | 5 Hour Call (Pseudomonas aeruginosa [2]; Dilution 0.25): 1 | 6 Hour Call (Pseudomonas aeruginosa [2]; Dilution 0.25): 1 | 4 Hour Call (Pseudomonas aeruginosa [2]; Dilution 0.5): 1 | 5 Hour Call (Pseudomonas aeruginosa [2]; Dilution 0.5): 1 | 6 Hour Call (Pseudomonas aeruginosa [2]; Dilution 0.5): 1 | 4 Hour Call (Pseudomonas aeruginosa [2]; Dilution 1): 0.2105 | 5 Hour Call (Pseudomonas aeruginosa [2]; Dilution 1): 0.9399 | 6 Hour Call (Pseudomonas aeruginosa [2]; Dilution 1): 0.9518 | 4 Hour Call (Pseudomonas aeruginosa [2]; Dilution 2): 0.003836 | 5 Hour Call (Pseudomonas aeruginosa [2]; Dilution 2): 4.89E−05 | 6 Hour Call (Pseudomonas aeruginosa [2]; Dilution 2): 3.77E−06 | 4 Hour Call (Pseudomonas aeruginosa [2]; Dilution 4): 0.002258 | 5 Hour Call (Pseudomonas aeruginosa [2]; Dilution 4): 7.26E−06 | 6 Hour Call (Pseudomonas aeruginosa [2]; Dilution 4): 2.27E−07 | 4 Hour Call (Pseudomonas aeruginosa [2]; Dilution 8): 0.0001531 | 5 Hour Call (Pseudomonas aeruginosa [2]; Dilution 8): 0.0005926 | 6 Hour Call (Pseudomonas aeruginosa [2]; Dilution 8): 0.000432 | 4 Hour Call (Pseudomonas aeruginosa [2]; Dilution 16): 0.003935 | 5 Hour Call (Pseudomonas aeruginosa [2]; Dilution 16): 0.001447 | 6 Hour Call (Pseudomonas aeruginosa [2]; Dilution 16): 2.32E−06 | 4 Hour Call (Pseudomonas aeruginosa [2]; Dilution 32): 0.009609 | 5 Hour Call (Pseudomonas aeruginosa [2]; Dilution 32): 5.69E−05 | 6 Hour Call (Pseudomonas aeruginosa [2]; Dilution 32): 1.23E−06 | 4 Hour Call (Pseudomonas aeruginosa [2]; Dilution 64): 0.001147 | 5 Hour Call (Pseudomonas aeruginosa [2]; Dilution 64): 1.21E−05 | 6 Hour Call (Pseudomonas aeruginosa [2]; Dilution 64): 1.64E−06
